Laboratory results published in patent US9113629B2, “4-amino-6-(4-substituted-phenyl)-picolinates and 6-amino-2-(4-substituted-phenyl)-pyrimidine-4-carboxylates and their use as herbicides” (DOW AGROSCIENCES LLC, priority 2013, dated 2015).
Read-outs that look alike come from different tables or passages of the source.

Experiments:
[1] = tested on: Key Broadleaf Weed and Crop Species; experiment: Post-emergent Test II herbicidal activity (Table 5); assay type: in vivo; conditions: post-emergence, 336 h, 14 days after application; for pest or weed control at 70 g/ha: application rate 70 g ai/ha; for pest or weed control at 140 g/ha: application rate 140 g ai/ha
Outline: (§1)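 Post-emergence foliar spray, 187 L/ha, track sprayer at 43 cm above canopy. Carrier: acetone/water/IPA/DMSO/Atplus 411F/Triton X-155. Plants at 1st–2nd true leaf; subirrigated afterwards; % injury scored visually at 14 d.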

[2] = tested on: Key Grass and Sedge Weeds as well as Grass Crops; experiment: Post-emergent Test II herbicidal activity (Table 6); assay type: in vivo; conditions: post-emergence, 336 h; for pest or weed control at 70 g/ha: 70 g ai/ha; for pest or weed control at 140 g/ha: 140 g ai/ha
Outline: as §1

[3] = ABUTH: velvetleaf (Abutilon theophrasti), read-out: Visual Growth Reduction (%) 14 Days After Application, ABUTH
[4] = AMARE: redroot pigweed (Amaranthus retroflexus), read-out: Visual Growth Reduction (%) 14 Days After Application, AMARE
[5] = BRSNN: oilseed-rape, canola (Brassica napus), read-out: Visual Growth Reduction (%) 14 Days After Application, BRSNN
[6] = CHEAL: lambsquarters (Chenopodium album), read-out: Visual Growth Reduction (%) 14 Days After Application, CHEAL
[7] = EPHHL: wild poinsettia (Euphorbia heterophylla), read-out: Visual Growth Reduction (%) 14 Days After Application, EPHHL
[8] = HELAN: sunflower (Helianthus annuus), read-out: Visual Growth Reduction (%) 14 Days After Application, HELAN
[9] = VIOTR: wild pansy (Viola tricolor), read-out: Visual Growth Reduction (%) 14 Days After Application, VIOTR
[10] = CYPES: yellow nutsedge (Cyperus esculentus), read-out: Visual Growth Reduction (%) 14 Days After Application, CYPES
[11] = DIGSA: crabgrass (Digitaria sanguinalis), read-out: Visual Growth Reduction (%) 14 Days After Application, DIGSA
[12] = ECHCG: barnyardgrass (Echinochloa crus-galli), read-out: Visual Growth Reduction (%) 14 Days After Application, ECHCG
[13] = ORYSA: rice (Oryza sativa), crop, read-out: Visual Growth Reduction (%) 14 Days After Application, ORYSA
[14] = SETFA: giant foxtail (Setaria faberi), read-out: Visual Growth Reduction (%) 14 Days After Application, SETFA
[15] = SORVU: grain sorghum (Sorghum vulgare), read-out: Visual Growth Reduction (%) 14 Days After Application, SORVU
[16] = TRZSS (wheat, Triticum aestivum), crop, read-out: Visual Growth Reduction (%) 14 Days After Application, TRZSS
[17] = ZEAMX: maize, corn (Zea mays), crop, read-out: Visual Growth Reduction (%) 14 Days After Application, ZEAMX

Compound | pest or weed control at 70 g/ha [1, 3] [%] | pest or weed control at 140 g/ha [1, 3] [%] | pest or weed control at 70 g/ha [1, 4] [%] | pest or weed control at 140 g/ha [1, 4] [%] | pest or weed control at 70 g/ha [1, 5] [%] | pest or weed control at 140 g/ha [1, 5] [%] | pest or weed control at 70 g/ha [1, 6] [%] | pest or weed control at 140 g/ha [1, 6] [%] | pest or weed control at 70 g/ha [1, 7] [%] | pest or weed control at 140 g/ha [1, 7] [%] | pest or weed control at 70 g/ha [1, 8] [%] | pest or weed control at 140 g/ha [1, 8] [%] | pest or weed control at 70 g/ha [1, 9] [%] | pest or weed control at 140 g/ha [1, 9] [%] | melting point [°C] | pest or weed control at 70 g/ha [2, 10] [%] | pest or weed control at 140 g/ha [2, 10] [%] | pest or weed control at 70 g/ha [2, 11] [%] | pest or weed control at 140 g/ha [2, 11] [%] | pest or weed control at 140 g/ha [2, 12] [%] | also measured
COC(=O)c1nc(-c2ccc(C(F)(F)F)c(F)c2F)c(F)c(N)c1Cl [Compound 149] | 95 to 100 | 95 to 100 | 95 to 100 | 95 to 100 | 85 to 94 | 95 to 100 | 95 to 100 | 95 to 100 | 95 to 100 | 95 to 100 | 95 to 100 | 95 to 100 | 85 to 94 | 85 to 94 | 131 to 132 | 95 to 100 | 95 to 100 | 30 to 44 | 30 to 44 | 95 to 100 | pest or weed control at 70 g/ha [2, 12]: 95 to 100%; pest or weed control at 70 g/ha [2, 13]: 0 to 29%; pest or weed control at 140 g/ha [2, 13]: 0 to 29%; pest or weed control at 70 g/ha [2, 14]: 30 to 44%; pest or weed control at 140 g/ha [2, 14]: 30 to 44%; pest or weed control at 70 g/ha [2, 15]: 95 to 100%; pest or weed control at 140 g/ha [2, 15]: 95 to 100%; pest or weed control at 70 g/ha [2, 16]: 30 to 44%; pest or weed control at 140 g/ha [2, 16]: 45 to 59%; pest or weed control at 70 g/ha [2, 17]: 75 to 84%; pest or weed control at 140 g/ha [2, 17]: 85 to 94%
COC(=O)c1nc(-c2ccc(OC(F)F)c(F)c2)c(F)c(N)c1Cl [Compound 152] | 85 to 94 | 85 to 94 | 85 to 94 | 85 to 94 | 85 to 94 | 85 to 94 | 85 to 94 | 85 to 94 | 95 to 100 | 95 to 100 | 75 to 84 | 85 to 94 | 0 to 29 | 0 to 29 | 112 to 114 | 60 to 74 | 95 to 100 | 45 to 59 | 75 to 84 | 85 to 94 | pest or weed control at 70 g/ha [2, 13]: 0 to 29%; pest or weed control at 140 g/ha [2, 13]: 0 to 29%; pest or weed control at 70 g/ha [2, 14]: 0 to 29%; pest or weed control at 140 g/ha [2, 14]: 45 to 59%; pest or weed control at 70 g/ha [2, 15]: 45 to 59%; pest or weed control at 140 g/ha [2, 15]: 45 to 59%; pest or weed control at 70 g/ha [2, 16]: 0 to 29%; pest or weed control at 140 g/ha [2, 16]: 0 to 29%; pest or weed control at 70 g/ha [2, 17]: 95 to 100%; pest or weed control at 140 g/ha [2, 17]: 95 to 100%
